“Also recorded” adds a separate entry of the source. Like-named read-outs stand apart in the source and are kept apart here. Marks after values point to notes of the source that are not given here.
Assays:
[1] = Fenthion, fenoxon and fenthion sulfoxide metabolism in gill microsomes; conditions: gills, substrate 100 μM, bdl: <0.3
[2] = Fenthion, fenoxon and fenthion sulfoxide metabolism in liver microsomes; conditions: for S-fenoxon sulfoxide formation / R-fenoxon sulfoxide formation: liver, substrate 100 μM; for Vmax, Fenoxon formation / Vmax, MMTP (NADPH-dependent) formation / Vmax, MMTP (NADPH-independent) formation / Vmax, R-fenthion sulfoxide formation / Vmax, S-fenthion sulfoxide formation / Vmax, R-fenoxon sulfoxide formation / Vmax, S-fenoxon sulfoxide formation: liver microsomes incubated with fenthion
[3] = olfactory tissues
[4] = biological target: T1, recombinant human FMO1 (Homo sapiens, UniProt Q01740); assay: Biotransformation by recombinant human FMO1; conditions: fenthion sulfoxide as substrate
T1 sequence (Q01740 1-532): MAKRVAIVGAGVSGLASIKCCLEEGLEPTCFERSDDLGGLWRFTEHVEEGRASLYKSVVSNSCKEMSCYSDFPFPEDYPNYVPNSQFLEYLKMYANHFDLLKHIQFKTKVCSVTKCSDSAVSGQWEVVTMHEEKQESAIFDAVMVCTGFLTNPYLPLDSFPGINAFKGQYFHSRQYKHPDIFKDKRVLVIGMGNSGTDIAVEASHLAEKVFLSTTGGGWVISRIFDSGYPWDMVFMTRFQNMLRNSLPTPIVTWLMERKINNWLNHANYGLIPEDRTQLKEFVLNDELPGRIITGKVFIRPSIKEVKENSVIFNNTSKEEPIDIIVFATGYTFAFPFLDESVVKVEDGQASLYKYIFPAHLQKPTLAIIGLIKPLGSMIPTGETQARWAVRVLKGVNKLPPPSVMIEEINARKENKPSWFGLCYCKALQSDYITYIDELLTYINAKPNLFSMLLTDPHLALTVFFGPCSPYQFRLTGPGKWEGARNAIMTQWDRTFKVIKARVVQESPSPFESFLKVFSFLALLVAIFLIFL

[5] = system: testosterone hydroxylase (CYP3A27-related); assay: [14C]Testosterone hydroxylase activity in liver microsomes; conditions: Ketoconazole 500 μM; below detection; data not shown
[6] = CYP; conditions: for reduction of fenoxon formation: liver microsomes, ketoconazole 500 μM; for Fenoxon formation from fenthion / MMTP (NADPH-dependent) formation from fenthion / MMTP (NADPH-independent) formation from fenthion / R-Fenthion sulfoxide formation from fenthion / S-Fenthion sulfoxide formation from fenthion: liver, NADPH+ ketoconazole (500 μM)+ fenthion
[7] = system: FMO3; conditions: ref Furnes and Schlenk, 2003, 2004; cited from earlier work
[8] = Cleavage in cytosolic incubations; conditions: data not shown
[9] = TEPP inhibition of MMTP formation from fenthion, liver microsomes; type: biochemical, rainbow trout (Oncorhynchus mykiss); conditions: freshwater-acclimated
[10] = TEPP inhibition of MMTP formation from fenthion, gill microsomes; type: biochemical, rainbow trout (Oncorhynchus mykiss); conditions: Gills, freshwater-acclimated
[11] = TEPP inhibition of MMTP formation from fenthion, olfactory tissue microsomes; type: biochemical, rainbow trout (Oncorhynchus mykiss); conditions: freshwater-acclimated
[12] = system: AChE; conditions: read-out: IC50 (AChE inhibition); ref Gadepalli et al., 2007; cited from earlier work
[13] = Table 1, freshwater-acclimated, bdl: <0.3
[14] = Table 1, freshwater-acclimated, substrate 100 μM, bdl: <0.3

Structure (SMILES): COP(=S)(OC)Oc1ccc([S+](C)[O-])c(C)c1 (centres unmarked) [S-fenthion sulfoxide]
- S-fenoxon sulfoxide formation ([1]; Table 1, freshwater-acclimated): 2.3±0.2 pmol/min/mg protein
- S-fenoxon sulfoxide formation ([1]; Table 4, Freshwater): 2.1±0.1 pmol/min/mg protein
- S-fenoxon sulfoxide formation [2, 13]: 6.1±0.2 pmol/min/mg protein
- S-fenoxon sulfoxide formation ([2]; Table 3, Freshwater, bdl: <0.3): 6.1±0.2 pmol/min/mg protein
- S-fenoxon sulfoxide formation ([2]; Table 3, Hypersaline): 12.2±3.2 pmol/min/mg protein
- S-fenoxon sulfoxide formation [3, 14]: bdl

Structure (SMILES): COP(=S)(OC)Oc1ccc([S+](C)[O-])c(C)c1 (centres unmarked) [fenthion sulfoxide]
- Fenoxon sulfoxides production [4]: not produced

Structure (SMILES): CC(=O)N1CCN(c2ccc(OCC3COC(Cn4ccnc4)(c4ccc(Cl)cc4Cl)O3)cc2)CC1 (centres unmarked) [ketoconazole]
- testosterone hydroxylase activity with inhibitor [5]: < 0.2 pmol/min/mg protein
- fenoxon sulfoxide formation with inhibitor ([6]; liver microsomes from HA fish, co-incubation): below detection
- reduction of fenoxon formation ([6]; FA fish): 67%
- reduction of fenoxon formation ([6]; HA fish): 60%
- Fenoxon formation from fenthion ([6]; Freshwater): 6.9±1.3 pmol/min/mg protein
- MMTP (NADPH-dependent) formation from fenthion ([6]; Freshwater): 121.2±15.3 pmol/min/mg protein
- MMTP (NADPH-independent) formation from fenthion ([6]; Freshwater): 5.3±2.1 pmol/min/mg protein
- R-Fenthion sulfoxide formation from fenthion ([6]; Freshwater): 16.7±1.7 pmol/min/mg protein
- S-Fenthion sulfoxide formation from fenthion ([6]; Freshwater): 33.7±2.7 pmol/min/mg protein
- Fenoxon formation from fenthion ([6]; Hypersaline): 16.8±2.4 pmol/min/mg protein
- MMTP (NADPH-dependent) formation from fenthion ([6]; Hypersaline): 13.2±4.5 pmol/min/mg protein
- MMTP (NADPH-independent) formation from fenthion ([6]; Hypersaline): 4.5±1.1 pmol/min/mg protein
- R-Fenthion sulfoxide formation from fenthion ([6]; Hypersaline): 83.4±8.4 pmol/min/mg protein
- S-Fenthion sulfoxide formation from fenthion ([6]; Hypersaline): 168.4±13.2 pmol/min/mg protein

Structure (SMILES): COP(=S)(OC)Oc1ccc(SC)c(C)c1 [Fenthion, O,O-dimethyl-O-(4-methylmlercapto)-3-methylphenylthio-phosphate]
- S-sulfoxide excess formed [7]: 75%
- NADPH-independent or dependent cleavage [8]: not observed
- R-fenoxon sulfoxide formation ([1]; Table 1, freshwater-acclimated): bdl
- S-fenoxon sulfoxide formation ([1]; Table 1, freshwater-acclimated): bdl
- R-fenoxon sulfoxide formation ([1]; Table 4, Freshwater): bdl
- S-fenoxon sulfoxide formation ([1]; Table 4, Freshwater): bdl
- R-fenoxon sulfoxide formation ([1]; Table 4, Hypersaline): bdl
- S-fenoxon sulfoxide formation ([1]; Table 4, Hypersaline): bdl
- Vmax, Fenoxon formation ([2]; Freshwater): 82.8±4.6 pmol/min/mg protein
- Vmax, MMTP (NADPH-dependent) formation ([2]; Freshwater): 199.2±24.4 pmol/min/mg protein
- Vmax, MMTP (NADPH-independent) formation ([2]; Freshwater): 53.7±4.8 pmol/min/mg protein
- Vmax, R-fenthion sulfoxide formation ([2]; Freshwater): 78.6±5.2 pmol/min/mg protein
- Vmax, S-fenthion sulfoxide formation ([2]; Freshwater): 173.4±9.6 pmol/min/mg protein
- Vmax, R-fenoxon sulfoxide formation ([2]; Freshwater, bdl: <0.3): bdl
- Vmax, S-fenoxon sulfoxide formation ([2]; Freshwater, bdl: <0.3): bdl
- Vmax, Fenoxon formation ([2]; Hypersaline): 130.0±6.1 pmol/min/mg protein
- Vmax, MMTP (NADPH-dependent) formation ([2]; Hypersaline): 35.1±1.9 pmol/min/mg protein
- Vmax, MMTP (NADPH-independent) formation ([2]; Hypersaline): 59.8±10.5 pmol/min/mg protein
- Vmax, R-fenoxon sulfoxide formation ([2]; Hypersaline): 7.7±0.6 pmol/min/mg protein
- Vmax, R-fenthion sulfoxide formation ([2]; Hypersaline): 201.1±11.9 pmol/min/mg protein
- Vmax, S-fenoxon sulfoxide formation ([2]; Hypersaline): 18.4±1.1 pmol/min/mg protein
- Vmax, S-fenthion sulfoxide formation ([2]; Hypersaline): 355.7±9.4 pmol/min/mg protein
- R-fenoxon sulfoxide formation [2, 13]: bdl
- S-fenoxon sulfoxide formation [2, 13]: bdl
- R-fenoxon sulfoxide formation ([2]; Table 3, Freshwater, bdl: <0.3): bdl
- S-fenoxon sulfoxide formation ([2]; Table 3, Freshwater, bdl: <0.3): bdl
- efficiency of R-sulfoxide formation relative to fenoxon ([2]; liver microsomes, HA fish): 2 fold
- efficiency of S-sulfoxide formation relative to R-sulfoxide ([2]; liver microsomes, HA fish): approximately 3 fold
- Fenoxon formation [3, 14]: bdl
- R-fenoxon sulfoxide formation [3, 14]: bdl
- R-fenthion sulfoxide formation [3, 14]: bdl
- S-fenoxon sulfoxide formation [3, 14]: bdl
- S-fenthion sulfoxide formation [3, 14]: bdl
- sulfoxidation ([3]; HA fish, data not shown): not detected

Structure (SMILES): CCOP(=O)(OCC)OP(=O)(OCC)OCC [TEPP, tetraethylpyrophosphate]
- MMTP Formation from fenthion, NADPH-dependent ([9]; 100 μM TEPP): 138.4±10.3^a pmol/min/mg protein
- MMTP Formation from fenthion, NADPH-dependent ([9]; 500 μM TEPP): 65.4±11.1^b pmol/min/mg protein
- MMTP Formation from fenthion, NADPH-independent ([9]; 500 μM TEPP, bdl: <0.3): bdl^b
- MMTP Formation from fenthion, NADPH-dependent ([9]; 1000 μM TEPP, bdl: <0.3): below detection; also recorded: bdl^c
- MMTP Formation from fenthion, NADPH-independent ([9]; 1000 μM TEPP, bdl: <0.3): bdl^b
- MMTP Formation from fenthion, NADPH-dependent ([10]; 100 μM TEPP): 105.3±8.9^a pmol/min/mg protein
- MMTP Formation from fenthion, NADPH-dependent ([10]; 500 μM TEPP): 74.3±10.1^b pmol/min/mg protein
- MMTP Formation from fenthion, NADPH-independent ([10]; 500 μM TEPP, bdl: <0.3): bdl^b
- MMTP Formation from fenthion, NADPH-dependent ([10]; 1000 μM TEPP, bdl: <0.3): below detection; also recorded: bdl^c
- MMTP Formation from fenthion, NADPH-independent ([10]; 1000 μM TEPP, bdl: <0.3): bdl^b
- MMTP Formation from fenthion, NADPH-dependent ([11]; 100 μM TEPP): 254.3±18.1^a pmol/min/mg protein
- MMTP Formation from fenthion, NADPH-dependent ([11]; 500 μM TEPP): 100.2±13.3^b pmol/min/mg protein
- MMTP Formation from fenthion, NADPH-independent ([11]; 500 μM TEPP, bdl: <0.3): bdl^b
- MMTP Formation from fenthion, NADPH-dependent ([11]; 1000 μM TEPP, bdl: <0.3): below detection; also recorded: bdl^c
- MMTP Formation from fenthion, NADPH-independent ([11]; 1000 μM TEPP, bdl: <0.3): bdl^b

Structure (SMILES): COP(=S)(OC)Oc1ccc([S@@+](C)[O-])c(C)c1 [R-fenthion sulfoxide]
- IC50 [12]: > 1000 µM
- R-fenoxon sulfoxide formation ([1]; Table 1, freshwater-acclimated): 2.9±0.1 pmol/min/mg protein
- R-fenoxon sulfoxide formation ([1]; Table 4, Freshwater): 2.9±0.1 pmol/min/mg protein
- R-fenoxon sulfoxide formation [2, 13]: 5.2±1.1 pmol/min/mg protein
- R-fenoxon sulfoxide formation ([2]; Table 3, Freshwater, bdl: <0.3): 5.2±1.1 pmol/min/mg protein
- R-fenoxon sulfoxide formation ([2]; Table 3, Hypersaline): 9.2±0.3 pmol/min/mg protein
- R-fenoxon sulfoxide formation [3, 14]: bdl

Source: publication PMC2858921 (Toxicology and applied pharmacology, 2008)
